We go through six molecules from paper PMC9189845, “Structure–Activity Relationships of 8-Hydroxyquinoline-Derived Mannich Bases with Tertiary Amines Targeting Multidrug-Resistant Cancer” (Journal of Medicinal Chemistry, 2022).

Read-outs that look alike come from different tables or passages of the source. A value given as a limit tells only on which side of the number the result lay.

One data set relates to MES-SA/Dx5 cells. Nature of the data set: PrestoBlue viability assay, MES-SA/Dx5 cells (MDR, P-gp positive). To be noted: for SR_TQ: selectivity ratio MES-SA vs MES-SA/Dx5, with TQ; for SR: selectivity ratio MES-SA vs MES-SA/Dx5, without TQ.
For a further data set, the system named is A431 cells. Kind of data set: PrestoBlue viability assay, A431 cells.
For data set [1] the following is noted: cited from earlier work.
The test system of a further data set is A431-B1 cells. Nature of the data set: PrestoBlue viability assay, A431-B1 (A431-ABCB1) cells.
For another data set, the system named is MES-SA cells. Kind of data set: PrestoBlue viability assay, MES-SA cells.
The nature of data set [2]: UV-visible spectrophotometric titrations (pKa). The format is physicochemical. As to conditions: water with 0.2% (v/v) DMSO, 25 °C. On the procedure:
Spectrophotometrical determination of pKa values was performed as previously reported.[20],[50] An Agilent Cary 8454 diode array spectrophotometer was used to record the UV–visible spectra in the interval 200–800 nm. The path length was between 1 and 5 cm. The spectrophotometric titrations were performed in water with 0.2% (v/v) DMSO on samples containing the compounds at 2–50 μM in the pH range from 2 to 11.5 at 25.0 ± 0.1 °C at an ionic strength of 0.10 M (KCl). Proton dissociation constants and the individual spectra of the species in the different protonation states were calculated with the computer program PSEQUAD.[62]

[3] abbreviates: Homo sapiens, MES-SA/Dx5, 72 h, read-out: IC50 / μM MES-SA/Dx5, absence of TQ, 72 h incubation.
Setting [4] is: Homo sapiens, MES-SA/Dx5, read-out: IC50 / μM MES-SA/Dx5 (values in parentheses), presence of 1 μM P-gp inhibitor tariquidar (TQ).
[5] abbreviates: Homo sapiens, MES-SA/Dx5, read-out: pIC50 value MES-SA/Dx5, MES-SA/Dx5 cells, without TQ (converted).
Setting [6] is: read-out: IC50 / μM MES-SA/Dx5 (values in parentheses), presence of 1 μM P-gp inhibitor tariquidar (TQ).
[7] abbreviates: Homo sapiens, A-431, 72 h, read-out: IC50 / µM A431, 72 h incubation.
Where [8] appears, read: Homo sapiens, A-431, read-out: pIC50 A431, SARM figure (converted).
The mark [9] stands for this setting: 72 h, read-out: IC50 / µM A431-B1, 72 h incubation.
Setting [10] is: read-out: pIC50 A431-B1, SARM figure (converted).
Where [11] appears, read: Homo sapiens, MES-SA, 72 h, read-out: IC50 / μM MES-SA, absence of TQ, 72 h incubation.
Where [12] appears, read: Homo sapiens, MES-SA, read-out: IC50 / μM MES-SA (values in parentheses), presence of 1 μM P-gp inhibitor tariquidar (TQ).
[13] abbreviates: Homo sapiens, MES-SA, read-out: pIC50 value MES-SA+TQ, MES-SA cells, with TQ (converted).
Where [14] appears, read: Homo sapiens, MES-SA, read-out: pIC50 value MES-SA, MES-SA cells, without TQ (converted).

As for `Oc1c(CN2CCCCC2)ccc2cccnc12` [Compound 3], the IC50 is 0.85 ± 0.18 µM in the data set on MES-SA/Dx5 cells (setting [3]); 2.69 µM in the data set with MES-SA/Dx5 cells (setting [4]); 0.832 µM with MES-SA/Dx5 cells (setting [5]); 1.87 µM in the data set with MES-SA/Dx5 cells (setting [6]); 0.86 ± 0.19 µM in the data set with MES-SA/Dx5 cells (read-out: IC50 / μM MES-SA/Dx5, absence of TQ, 72 h incubation); 7.3 ± 0.98 µM in the data set on A431 cells (setting [7]). In addition, the IC50 in the data set on A431 cells (setting [8]) was 9.77 µM; in the data set with A431 cells (read-out: IC50 / µM A431, 72 h incubation) it was 10.1 ± 2.95 µM; with A431-B1 cells (setting [9]), 1.62 ± 0.92 µM; in the data set with A431-B1 cells (read-out: IC50 / µM A431-B1, 72 h incubation), 2.48 ± 0.7 µM; in the data set on A431-B1 cells (setting [10]), 2.4 µM; in the data set on MES-SA cells (setting [11]), 5.21 ± 0.95 µM. Besides, the IC50 is 4.18 µM with MES-SA cells (setting [12]); 4.07 µM in the data set with MES-SA cells (setting [13]); 5.13 µM in the data set with MES-SA cells (setting [14]); 3.81 µM in the data set on MES-SA cells (read-out: IC50 / μM MES-SA (values in parentheses), presence of 1 μM P-gp inhibitor tariquidar (TQ)); 5.46 ± 1.01 µM with MES-SA cells (read-out: IC50 / μM MES-SA, absence of TQ, 72 h incubation). Besides, in the data set with MES-SA/Dx5 cells, the SR_TQ is 1.56. Besides, the SR in the data set on MES-SA/Dx5 cells is reported as 6.13. For the same molecule, in data set [1] (water, 25 °C, ref 50 (Pape et al., Dalton Trans. 2018)), the “pKa (other; N+amH), experimental” value is given as over 11.

For the molecule `Oc1ccc(Cl)c2cccnc12` [Compound 13, reference compound], the IC50 is 5.15 ± 0.48 µM with MES-SA/Dx5 cells (setting [3]), 5.13 µM in the data set on MES-SA/Dx5 cells (setting [5]), 8.26 ± 0.1 µM with MES-SA cells (setting [11]) and 8.32 µM with MES-SA cells (setting [14]). Moreover, the SR with MES-SA/Dx5 cells is listed as 1.6. Also, the “pKa (OH), experimental” value in data set [1] (ref 59 (Mészáros et al., Dalton Trans. 2020)) is listed as 7.6.

One may read the melting point as the temperature of the solid-liquid transition. The molecule `Oc1c(CN2CCCC2)cc(Br)c2cccnc12` [Compound 16, 5-Bromo-7-(pyrrolidin-1-ylmethyl)quinolin-8-ol] yielded a melting point of 119 to 121 °C. The IC50 in the data set on MES-SA/Dx5 cells (setting [3]) came to 0.41 ± 0.14 µM. Moreover, the IC50 in the data set with MES-SA/Dx5 cells (setting [4]) came out at 3.14 ± 0.89 µM. The IC50 in the data set on MES-SA/Dx5 cells (setting [5]) is 0.389 µM. In addition, in the data set on MES-SA/Dx5 cells, the SR_TQ came out at 1.46 and the SR is given as 9.45. The IC50 in the data set with A431 cells (setting [7]) is 4.32 ± 0.39 µM. In addition, the IC50 with A431 cells (setting [8]) is 4.27 µM. In the data set on A431-B1 cells (setting [9]), the IC50 amounted to 1.54 ± 0.51 µM. In the data set on A431-B1 cells (setting [10]), the IC50 is 1.45 µM. Moreover, the IC50 in the data set on MES-SA cells (setting [11]) amounted to 3.9 ± 0.87 µM. In the data set with MES-SA cells (setting [12]), the IC50 worked out at 4.58 ± 1.05 µM. Besides, the IC50 in the data set with MES-SA cells (setting [13]) is 4.47 µM. In addition, in the data set with MES-SA cells (setting [14]), the IC50 is 3.8 µM.

Consider `Oc1c(CN2CCOCC2)cc(Cl)c2cccnc12` [Compound 29], for which the IC50 is 0.82 ± 0.06 µM in the data set on MES-SA/Dx5 cells (setting [3]); 1.17 ± 0.01 µM in the data set with MES-SA/Dx5 cells (setting [4]); 0.813 µM with MES-SA/Dx5 cells (setting [5]); 6.6 ± 3.57 µM in the data set on A431 cells (setting [7]); 5.75 µM in the data set on A431 cells (setting [8]); 2.42 ± 0.29 µM in the data set with A431-B1 cells (setting [9]). For the same molecule, the IC50 with A431-B1 cells (setting [10]) was 2.4 µM; in the data set with MES-SA cells (setting [11]), 1.52 ± 0.07 µM; in the data set with MES-SA cells (setting [12]), 1.66 ± 0.02 µM; in the data set on MES-SA cells (setting [13]) it was 1.66 µM; in the data set with MES-SA cells (setting [14]) it was 1.51 µM. Further, the SR_TQ in the data set on MES-SA/Dx5 cells is 1.41. For the same molecule, the SR in the data set on MES-SA/Dx5 cells is given as 1.86. For the same molecule, the “pKa (NquinH+), experimental” value in data set [1] (water, 25 °C, ref 15 (Pape et al., Cancers 2021)) is under 2.

Turning to `CN1CCN(Cc2ccc3cccnc3c2O)CC1` [Compound 34, 7-((4-Methylpiperazin-1-yl)methyl)quinolin-8-ol], the melting point is 120 to 122 °C. Besides, in the data set on MES-SA/Dx5 cells (setting [3]), the IC50 was determined as 8.67 ± 1.69 µM. In the data set on MES-SA/Dx5 cells (setting [4]), the IC50 worked out at 14.1 µM. The IC50 with MES-SA/Dx5 cells (setting [5]) was 8.51 µM. Besides, the “SR (MES-SA_TQ / Dx5_TQ) (values in parentheses)” value in the data set with MES-SA/Dx5 cells (fraction of IC50 in P-gp negative vs positive cells, presence of 1 μM TQ) is 1.10. For the same molecule, in the data set with MES-SA/Dx5 cells, the SR_TQ was found to be 1.1 and the SR was 1.93. The IC50 in the data set with A431 cells (setting [7]) was 25.5 ± 1.98 µM. Also, the IC50 in the data set on A431 cells (setting [8]) was 25.7 µM. For the same molecule, in the data set on A431-B1 cells (setting [9]), the IC50 was 11.3 ± 0.95 µM. Further, in the data set on A431-B1 cells (setting [10]), the IC50 is 11.2 µM. Besides, the IC50 in the data set with MES-SA cells (setting [11]) was 16.7 ± 1.86 µM. Moreover, the IC50 in the data set with MES-SA cells (setting [12]) came to 15.5 ± 0.19 µM. Moreover, the IC50 in the data set with MES-SA cells (setting [13]) was 15.5 µM. Besides, the IC50 with MES-SA cells (setting [14]) is 16.6 µM.

As to `Oc1c(CN2CCc3ccccc3C2)ccc2cccnc12` [Compound 51, 7-((3,4-Dihydroisoquinolin-2(1H)-yl)methyl)quinolin-8-ol], the melting point lay within 155 to 157 °C. Besides, the IC50 in the data set with MES-SA/Dx5 cells (setting [3]) was found to be 1.04 ± 0.1 µM. For the same molecule, the IC50 with MES-SA/Dx5 cells (setting [4]) was determined as 2.16 ± 0.31 µM. Besides, the IC50 in the data set with MES-SA/Dx5 cells (Homo sapiens, MES-SA/Dx5, read-out: pIC50 value MES-SA/Dx5 + TQ, MES-SA/Dx5 cells, with TQ (converted)) is 2.14 µM. In addition, the IC50 in the data set with MES-SA/Dx5 cells (setting [5]) is 1.05 µM. In addition, the IC50 in the data set with MES-SA/Dx5 cells (setting [6]) was 1.73 µM. Further, in the data set with MES-SA/Dx5 cells, the SR_TQ came to 1.37 and the SR was 3.03. In data set [2] (0.2% DMSO, I = 0.10 M KCl, read-out: pKa (OH), experimentally determined), the pKa worked out at 6.24 ± 0.03. The pKa in data set [2] (piperidinium / pyrrolidinium / morpholinium N, read-out: pKa (other; N+amH alkylamine nitrogen), experimentally determined) was 10.68 ± 0.03. For the same molecule, the pKa in data set [2] (quinolinium nitrogen, I = 0.10 M KCl, read-out: pKa (NquinH+), experimentally determined) was 3.07 ± 0.03. Further, the IC50 in the data set with A431 cells (setting [7]) was 4.74 ± 0.04 µM. The IC50 with A431 cells (setting [8]) is 4.79 µM. In the data set on A431-B1 cells (setting [9]), the IC50 was 2.39 ± 0.02 µM. In addition, the IC50 in the data set on A431-B1 cells (setting [10]) is 2.4 µM. In addition, the IC50 in the data set on MES-SA cells (setting [11]) was 3.16 ± 0.41 µM. Also, the IC50 in the data set with MES-SA cells (setting [12]) was found to be 2.97 ± 0.31 µM. Moreover, the IC50 in the data set on MES-SA cells (setting [13]) was 2.95 µM. Further, in the data set with MES-SA cells (setting [14]), the IC50 is 3.16 µM.
